According to patent US5801144A, “Use of a compound for the manufacture of a medicament for the treatment of HIV infection” (priority 1992, dated 1998):
Entries after “also recorded” stand apart in the source; their conditions may differ. Read-outs that look alike come from different tables or passages of the source.

Key:
[1] = test system: non-infected Molt 4 cells; assay: Growth-rate of non-infected T-cells; type: cell-based
Protocol: (§1) Method: Molt 4 cells and the clone of the same cells, chronically infected with HIV-1, were seeded separately at an approximate concentration of 5×10^4 cells/ml. Five separate cultures of each of the two cell populations were seeded. […] At 24 hour intervals samples were taken for cell counting. Feeding with or without the corresponding chemical was done after the fourth day. AZT was also used in parallel.

NDK strain of HIV-1 = assay: Giant cell assay: co-cultivation of HIV-1 chronically infected Molt 4 cells with non-infected Molt 4 cells; type: cell-based
Protocol: Method: A clone of the leukaemia T-cell line Molt 4, which expresses a very high level of CD4, was selected. This was infected with the highly cytopathic NDK strain of HIV-1^6 and a clone which is chronically infected with the virus but which readily replicates was selected. When these HIV-infected cells w ere co-cultivated with non-infected Molt 4 cells at a ratio of 100 non-infected:1 infected cell, very large giant cells were formed within 24 hours.
(§2) The effects of serum from healthy HIV-1 infected individuals and AIDS patients on giant cell formation was also examined. In addition the level of cytotoxicity and anti-HIV-1 activity of these substances was tested in an anti-HIV assay system which has been previously described^7. This enabled us to establish the anti-viral activity and cytotoxicity in parallel and to compare it to the effects of AZT on virus inhibition and cell division.

HIV-2 = assay: Giant cell / cytopathic effect on co-cultivation of HIV-2 chronically infected cells with uninfected cells; type: cell-based; conditions: co-cultivation in the presence of the drugs, within 24 hours
CD4 [2] = assay: CD4 expression on HIV-1 chronically infected cells (flow cytometry); type: cell-based; conditions: 1 and 4 μg/ml, 3 days
Protocol: (§3) Each cell preparation was kept separately at a concentration of 1 and 4 μg/ml of each drug for 3 days. Infected and uninfected cells were suspended at a concentration of 10^6 /ml in phosphate buffered saline (PBS) containing 0.1% sodium azide. Triplicate aliquots of 100 μl were incubated separately with 20 μl Leu-3a (FITC) (Ortho (Becton Dickinson UK Ltd) or with 10 μl OKT4a (FITC) Diagnostic Systems). After 20 min at 22° C. the cells were washed twice with PBS and resuspended in 0.51% paraformaldehyde/PBS (Sigma). The preparations were fixed overnight at 4° C. and subsequently analysed by flow cytometry (FACScan, Becton Dickinson UK Ltd). The median channel fluorescence was recorded for each sample.

HIV-1 [3] = assay: Anti-HIV assay system (HIV-1 replication, cytotoxicity in parallel); type: cell-based
Protocol: as §2

HIV-1 [4] = conditions: drug-containing medium replaced with growth medium alone, one week
Protocol: Method: Culture fluid was collected from:
1. chronically infected cells grown in growth medium;
3. chronically infected cells grown in 10 μg/ml of FK506 and for 1 week after removal of compound;
Each culture was titrated at serial ten-fold dilutions. Each dilution was used to infect Molt 4 cells in duplicate. The end point was recorded after 10 days.

[5] = test system: Molt 4 cells chronically infected with HIV-1; assay: Growth-rate of chronically infected T-cells; type: cell-based
Protocol: as §1

CD4 [6] = assay: CD4 expression on non-infected cells (flow cytometry); type: cell-based; conditions: 1 and 4 μg/ml, 3 days
Protocol: as §3

C=CC[C@@H]1/C=C(\C)C[C@H](C)C[C@H](OC)[C@H]2O[C@@](O)(C(=O)C(=O)N3CCCC[C@H]3C(=O)O[C@H](/C(C)=C/[C@@H]3CC[C@@H](O)[C@H](OC)C3)[C@H](C)[C@@H](O)CC1=O)[C@H](C)C[C@@H]2OC [FK506, 16-Allyl-1, 14-dihydroxy-12-[2-(4-hydroxy-3-methoxycyclohexyl)-1-methylvinyl]-23,25-dimethoxy-13,19,21,27-tetramethyl-11,28-dioxa-4-azatricyclo-[22,3,1,0^4,9]octacos-18-ene-2,3,10,16-tetrone]
cell division of uninfected cells at 4 μg/ml [1]: did not appear to slow cell division | growth of uninfected cells, first five days [1]: did not affect the growth of uninfected cells | number of uninfected cells after day five at 10 μg/ml [1]: only a marginal increase in the number of cells | delay of cytopathic effect / giant cell formation (anti-HIV-1 activity) (NDK strain of HIV-1; HIV-1, co-cultivation in the presence of the drugs, within 24 hours): delay of the cytopathic effect; also recorded: delay in the formation of giant cells | giant cell formation after drug pre-treatment of infected cells (NDK strain of HIV-1; chronically infected cells cultured one week with drug, washed, co-cultivated without drug): a few small giant cells could be seen during the first 24 hours | onset of cytopathic effects, in particular giant cell formation (NDK strain of HIV-1; chronically infected cells grown with drug for five days and then washed): inhibition of and a delay in the onset of cytopathic effects | giant cell formation (NDK strain of HIV-1; co-cultured in the presence of 10 μg/ml, examined after 24 hours): only a few small giant cells | delay of cytopathic effect / giant cell formation (anti-HIV-2 activity) (HIV-2): delay of the cytopathic effect; also recorded: delay in the formation of giant cells | CD4 expression on chronically HIV-1 infected Molt 4 cells (CD4 [2]): does not seem to be affected | HIV-1 replication at 1 μg (HIV-1 [3]; at 1 μg): only a partial decrease | antiviral activity at non-toxic concentrations (HIV-1 [3]; non-toxic concentrations): marginal antiviral activity | inhibition of HIV-1 replication (comparison with AZT) (HIV-1 [3]; various concentrations, FIG. 1): far lower than that of AZT | production of infectious HIV-1 after drug removal (HIV-1 [4]): increase in the production of infectious HIV-1 to the levels which preceded the drug treatment | effect on growth / replication of HIV-1 chronically infected cells [5]: inhibited the replication; also recorded: inhibit the growth of the chronically infected cells | cell division of chronically infected cells at 4 μg/ml ([5]; 4 μg/ml): significant reduction in cell division | number of chronically infected cells at 10 μg/ml ([5]; 10 μg/ml, after a week in culture): only a marginal increase in the number of cells | effect on growth / replication of HIV-1 chronically infected cells ([5]; listed as FK): significantly inhibited the replication | CD4 expression on uninfected Molt 4 cells (CD4 [6]): expressed a high level of CD4
